Assay results as given in patent publication US5747504A, “Method of treating cardiac insufficiency using angiotensin-converting enzyme inhibitors” (priority 1984, dated 1998).

Columns and labels:
Assay type in all cases: in vivo
ACE in the heart = assay: Inhibition of ACE in the heart after oral treatment of spontaneously hypertensive rats
Protocol: It is known that converting enzyme inhibitors are capable of inhibiting the enzyme not only in the serum but also in various tissues, and especially also in the heart.
In contrast, with 30 mg/kg of N-(1-carbethoxy-3-phenyl-propyl)-S-alanyl-S-proline (enalapril) perorally, already no further significant inhibition is observed after more than 6 hours.

isolated heart [1] = assay: Postganglionic sympathetic stimulation on the isolated heart after oral pretreatment; conditions: oral pretreatment with 1 mg/kg perorally, rabbits
From the text: Postganglionic sympathetic stimulation on the isolated heart leads, via increased catecholamine release, to an increase in heart rate and contractility and to a decrease in coronary blood flow. […] These effects act together to protect the incompetent heart.

isolated heart [2] = assay: Effect of angiotensin I and bradykinin on coronary blood flow in the isolated heart after oral pretreatment; conditions: isolated heart of rabbits, guineapigs and rats
Protocol: Angiotensin I decreases whilst bradykinin increases the coronary blood flow in the isolated heart of rabbits, guineapigs and rats. […] The same effect can only be achieved with 30 mg/kg of enalapril.

[3] = oral pretreatment with 1 mg/kg perorally

Structure (SMILES)	inhibition of the ACE in the heart at the end of treatment (ACE in the heart; chronic oral treatment for two weeks with 1 mg/kg) [%]	duration of significant inhibition of the ACE in the heart (ACE in the heart; single oral dose of 1 mg/kg) [h]	influence of postganglionic sympathetic stimulation on contractility (isolated heart [1])	influence of postganglionic sympathetic stimulation on coronary blood flow (isolated heart [1])	influence of postganglionic sympathetic stimulation on heart rate (isolated heart [1])	action of bradykinin on coronary blood flow (isolated heart [2]; [3])	effect of angiotensin I on coronary blood flow (isolated heart [2]; [3])	duration of significant inhibition of the ACE in the heart (ACE in the heart; 30 mg/kg perorally) [h]	inhibition of the ACE in the heart at the end of treatment (ACE in the heart; chronic oral treatment for two weeks with 30 mg/kg perorally)	action of bradykinin on coronary blood flow (isolated heart [2]; 30 mg/kg)	effect of angiotensin I on coronary blood flow (isolated heart [2]; 30 mg/kg)
CCOC(=O)[C@H](CCc1ccccc1)N[C@@H](C)C(=O)N1[C@H](C(=O)O)C[C@@H]2CCC[C@@H]21 [compound of the formula II, N-(1-S-carbethoxy-3-phenyl-propyl)-S-alanyl-cis-endo-2-azabicyclo[3,3,0]octane-3-S-carboxylic acid]	55	> 24	unaffected	significantly reduces	significantly reduces	increases	significantly reduces				
CCOC(=O)[C@H](CCc1ccccc1)N[C@@H](C)C(=O)N1CCC[C@H]1C(=O)O [enalapril, N-(1-carbethoxy-3-phenyl-propyl)-S-alanyl-S-proline, reference compound]								≤ 6	no inhibition is observed	same effect	same effect
